Laboratory results: patent publication US20260317332A1, “BICYCLIC HETEROCYCLE COMPOUNDS FOR THE TREATMENT OF CANCER” (Hoffmann-La Roche Inc., priority 2023, published 2026)

How the values were obtained:
CD73 [1] = molecular target: T1, CD73 (Homo sapiens, UniProt P21589); test: Human CD73 Biochemical Assay; settings: 0.05 nM recombinant CD73; AMP 5.56 μM final; 10 min at room temperature; LC/MS adenosine readout; read-out: Enzymatic IC50 against human CD73
T1 sequence (P21589 27-574): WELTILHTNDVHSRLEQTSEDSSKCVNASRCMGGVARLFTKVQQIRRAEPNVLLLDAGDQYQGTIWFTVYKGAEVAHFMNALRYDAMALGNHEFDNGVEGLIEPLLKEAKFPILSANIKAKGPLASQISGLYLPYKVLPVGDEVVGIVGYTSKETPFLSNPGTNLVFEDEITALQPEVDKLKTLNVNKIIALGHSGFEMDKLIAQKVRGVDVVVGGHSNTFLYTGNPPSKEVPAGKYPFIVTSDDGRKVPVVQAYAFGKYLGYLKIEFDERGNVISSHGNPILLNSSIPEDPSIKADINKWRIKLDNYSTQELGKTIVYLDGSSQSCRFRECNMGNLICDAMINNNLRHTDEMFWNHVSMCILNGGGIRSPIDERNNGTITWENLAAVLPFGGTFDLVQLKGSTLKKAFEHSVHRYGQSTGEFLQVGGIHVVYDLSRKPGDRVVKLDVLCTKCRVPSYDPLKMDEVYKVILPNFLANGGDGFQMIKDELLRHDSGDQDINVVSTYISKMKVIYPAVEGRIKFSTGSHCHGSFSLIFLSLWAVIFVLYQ
Method: The purpose of this assay is to identify and characterize inhibitors of human CD73 enzymatic activity. Compound serial dilution (1:3) was prepared with Echo 555 liquid handler (Labcyte) into the corresponding wells of a 384-well plate. 10 μL of enzyme working solution (containing 0.05 nM recombinant CD73 protein, 10 mM Tris pH 7.5, 100 mM NaCl, 0.01% BSA, 0.2 mM Octyl glucoside and 1 mM NaH2PO4) was added to the assay plate and incubated with compounds for 15 minutes at room temperature. After adding 15 μL of AMP working solution (Containing 10 mM Tris pH 7.5, 100 mM NaCl, 0.01% BSA, 0.2 mM Octyl glucoside, with 5.56 μM of AMP final concentration) and incubate for 10 min at room temperature. Stop the reaction by adding 75 μL of stop solution (5% TCA in H2O containing 250 nM 13C5-adenosine) to each well for 10 min incubation. After centrifugation, 75 μL of the mixture was transferred to a new 384-well plate for LC/MS analysis.
Samples from the 384-well plates, were loaded onto an autosampler deck, then injected with ADDA-LC-MS/MS. The aqueous mobile phase is 0.1% formic acid in water. The organic mobile phase is 0.1% formic acid in acetonitrile. Flow rate is maintained at 0.8 mL/minute using Shimadzu pumps. The column is ACE 5 Phenyl, 50×2.1 mm. The analysis was performed on a SCIEX triple quadrupole mass spectrometer operating in positive ion mode. The effluent from the HPLC column was directly introduced into the electrospray ionization (ESI). Multiple reaction monitoring (MRM) is used to determine analyte and internal standard (IS) responses. The MRM for adenosine is 268.1/136.1, for 13C5-Adenosine (IS) is 273.2/136.2. The data is calculated using the peak area ratio (PAR) semi-quantitative method.

CD4+ T cells = test: T Cell Proliferation Assay: CD4+ T cell proliferation; assay type: cell-based; settings: Homo sapiens, high AMP condition (200 μM AMP, 5 μM EHNA), CD3/CD28 beads, 72 hours, read-out: CD4+ T cell proliferation EC50 (rescue of proliferation)
Method: (§1) The purpose of this assay is to characterize the potency of inhibitors of CD73 in rescuing adenosine-mediated inhibition of T cell proliferation. CD4+ or CD8+ T cells were isolated from peripheral blood mononuclear cells (PBMCs, HemaCare) by immunomagnetic negative selection using EasySep™ Isolation Kit (STEMCELL Technologies) following the supplier's protocol. Pan T cells were pelleted by centrifugation at 300 gravitational force (g) for 5 minutes at room temperature and re-suspended in PBS. CellTrace™ Violet staining solution (Invitrogen) was added at 1:5,000 and incubated at 37° C. for 20 minutes, protected from light. Complete culture medium [RPMI-1640 (Gibco), 10% Fetal Bovine Serum (Gibco), 2 mM GlutaMAX (Gibco) and 1 mM Sodium Pyruvate (Gibco), 100 U/mL Penicillin-Streptomycin (Gibco) and MEM non-essential amino acids (NEAA) cell culture supplement (1:100, Gibco)] was then added, mixed, and incubated at 37° C. for 5 minutes. Cells were then pelleted by centrifugation at 300 g for 5 minutes at room temperature and re-suspended in fresh, pre-warmed complete culture medium. 50 μL of cells were seeded per well in 96 well u-bottom plates. 50 μL of CD3/CD28 beads-containing medium and 50 μL of media containing compounds were added into cells. 50 μL of media containing AMP and EHNA hydrochloride (Sigma-Aldrich) was added into cells at 200 μM and 5 μM final concentration, respectively. Cells were incubated for 72 hours at 37° C. in a 5% CO2 incubator. 200 μL of PBS was then added to each well and cells were centrifuged at 300 g, 4° C. for 10 minutes. The supernatant was discarded. 50 μL of Human TruStain FcX™ (Fc Receptor Blocking Solution, BioLegend) diluted 1:100 in PBS was added to each well, mixed gently and incubated for 20 minutes at 4° C. 50 μL of staining solution (BioLegend) was added to each well, mixed gently and incubated at 4° C. for 30 minutes. Cells were centrifuged at 300 g, 4° C. for 10 minutes and the supernatant was discarded. The cell pellets were washed with 250 μL of cell staining buffer and centrifuged at 300 g, 4° C. for 10 minutes. The supernatant was discarded and cells were re-suspended in 60 μL of cell staining buffer and analyzed on a flow cytometer.

CD8+ T cells = test: T Cell Proliferation Assay: CD8+ T cell proliferation; assay type: cell-based; settings: high AMP condition (200 μM AMP, 5 μM EHNA), CD3/CD28 beads, 72 hours, read-out: CD8+ T cell proliferation EC50 (rescue of proliferation)
Method: as §1

CD73 [2] = molecular target: T1, CD73; test: CD73 Cellular Assay; assay type: cell-based; design: 40 μL of MDA-MB-231 cells (ATCC, HTB-26, breast cancer); host or cells: MDA-MB-231; settings: MDA-MB-231 cells; 200 μM AMP working solution; 45 min at 37° C.; malachite readout; read-out: Cellular IC50 against CD73
Method: Compound serial dilution (1:3) was prepared with Echo 555 liquid handler (Labcyte) into the corresponding wells of a 384-well plate. 40 μL of MDA-MB-231 cells (ATCC, HTB-26, breast cancer, final concentration at 20,000 cells/mL) suspended in assay buffer (20 mM HEPES pH 7.4, 137 mM NaCl, 5.4 mM KCl, 1.3 mM CaCl2, 4.2 mM NaHCO3, 1 mg/mL glucose) were added into the corresponding wells of the plate. After incubating with compounds for 30 minutes, 40 μL of AMP working solution (200 μM AMP in assay buffer) was added into each well in the assay plate. The assay plate was then incubated in a 5% CO2 incubator (Thermo Fisher Scientific) at 37° C. for 45 min. After the reaction was completed, 50 μL of the supernatants was collected and transferred into a new 384 well plate. 10 μL of Malachite A was added to each well in the assay plate and incubated for 10 minutes. 10 μL of Malachite B was then added to each corresponding well of the plate and incubated for 30 minutes. Finally the absorbance value was read on the Envision plate reader at […]. Calculation percentage inhibition by using equation {% inhibition=100×[1−(X−MIN)/(MAX−MIN)]} where X equals to the well signal, Max equals signal of neutral control and MIN equals signal of inhibitor control.

SMILES | IC50 (CD73 [1]) [nM] | EC50 (CD4+ T cells) [nM] | EC50 (CD8+ T cells) [nM] | IC50 (CD73 [2]) [nM]
Cn1nc(O[C@H](c2ccnc(OCC(F)F)c2)C(F)F)c2cc(-c3c[nH]c(=O)[nH]c3=O)nnc21 [Example 11B, 5-[3-[(1R)-1-[2-(2,2-difluoroethoxy)-4-pyridyl]-2,2-difluoro-ethoxy]-1-methyl-pyrazolo[3,4-c]pyridazin-5-yl]-1H-pyrimidine-2,4-dione] | 0.05 | 0.24 | 0.29 | 0.72
Cn1nc(O[C@H](c2ccnc(C3CC(F)(F)C3)c2)C(F)F)c2cc(-c3c[nH]c(=O)[nH]c3=O)nnc21 [Example 38, 5-[3-[(1R)-1-[2-(3,3-difluorocyclobutyl)-4-pyridyl]-2,2-difluoro-ethoxy]-1-methyl-pyrazolo[3,4-c]pyridazin-5-yl]-1H-pyrimidine-2,4-dione] | 0.06 | 0.06 | 0.07 | 0.36
Cn1nc(O[C@H](c2cc(OCC(F)(F)F)ccn2)C(F)F)c2cc(-c3c[nH]c(=O)[nH]c3=O)nnc21 [Example 4, 5-[3-[(1R)-2,2-difluoro-1-[4-(2,2,2-trifluoroethoxy)-2-pyridyl]ethoxy]-1-methyl-pyrazolo[3,4-c]pyridazin-5-yl]-1H-pyrimidine-2,4-dione] | 0.07 | 0.18 | 0.22 | 0.49
COCCOc1cc([C@@H](Oc2nn(C)c3nnc(-c4c[nH]c(=O)[nH]c4=O)cc23)C(F)F)ccn1 [Example 28, 5-[3-[(1R)-2,2-difluoro-1-[2-(2-methoxyethoxy)-4-pyridyl]ethoxy]-1-methyl-pyrazolo[3,4-c]pyridazin-5-yl]-1H-pyrimidine-2,4-dione] | 0.05 | 0.33 | 0.56 | 0.63
Cn1nc(O[C@H](c2ccc3cnn(CC(F)(F)F)c3c2)C(F)F)c2cc(-c3c[nH]c(=O)[nH]c3=O)nnc21 [Example 24, 5-[3-[(1R)-2,2-difluoro-1-[1-(2,2,2-trifluoroethyl)indazol-6-yl]ethoxy]-1-methyl-pyrazolo[3,4-c]pyridazin-5-yl]-1H-pyrimidine-2,4-dione] | 0.05 | 0.19 | 0.23 | 0.44
Cn1nc(O[C@H](c2cc(OC3CC(F)(F)C3)ncn2)C(F)F)c2cc(-c3c[nH]c(=O)[nH]c3=O)nnc21 [Example 42A, 5-[3-[(1R)-1-[6-(3,3-difluorocyclobutoxy)pyrimidin-4-yl]-2,2-difluoro-ethoxy]-1-methyl-pyrazolo[3,4-c]pyridazin-5-yl]-1H-pyrimidine-2,4-dione] | 0.06 | 0.22 | 0.18 | 0.76
Cn1nc(O[C@H](c2ccnc(COC3CC3)c2)C(F)F)c2cc(-c3c[nH]c(=O)[nH]c3=O)nnc21 [Example 2, 5-[3-[(1R)-1-[2-(cyclopropoxymethyl)-4-pyridyl]-2,2-difluoro-ethoxy]-1-methyl-pyrazolo[3,4-c]pyridazin-5-yl]-1H-pyrimidine-2,4-dione] | 0.07 | 0.18 | 0.17 | 0.21
C[C@H](Nc1cc([C@@H](Oc2nn(C)c3nnc(-c4c[nH]c(=O)[nH]c4=O)cc23)C(F)F)ccn1)C(F)(F)F [Example 26, 5-[3-[(1R)-2,2-difluoro-1-[2-[[(1S)-2,2,2-trifluoro-1-methyl-ethyl]amino]-4-pyridyl]ethoxy]-1-methyl-pyrazolo[3,4-c]pyridazin-5-yl]-1H-pyrimidine-2,4-dione] | 0.04 | 0.08 | 0.09 | 0.27
Cn1nc(O[C@H](c2ccnc(COCC(F)(F)F)c2)C(F)F)c2cc(-c3c[nH]c(=O)[nH]c3=O)nnc21 [Example 34, 5-[3-[(1R)-2,2-difluoro-1-[2-(2,2,2-trifluoroethoxymethyl)-4-pyridyl]ethoxy]-1-methyl-pyrazolo[3,4-c]pyridazin-5-yl]-1H-pyrimidine-2,4-dione] | 0.07 | 0.1 | 0.11 | 0.42
Cn1nc(O[C@H](c2ccnc(OCC(F)(F)F)c2)C(F)F)c2cc(-c3n[nH]c(=O)[nH]c3=O)nnc21 [Example 12, 6-[3-[(1R)-2,2-difluoro-1-[2-(2,2,2-trifluoroethoxy)-4-pyridyl]ethoxy]-1-methyl-pyrazolo[3,4-c]pyridazin-5-yl]-2H-1,2,4-triazine-3,5-dione] | 0.02 | 0.15 | 0.12 | 0.67
Cn1nc(O[C@H](c2cc(OCC(F)(F)F)ncn2)C(F)F)c2cc(-c3c[nH]c(=O)[nH]c3=O)nnc21 (single isomer, unassigned) [Example 35A] | 0.06 | 0.3 | 0.32 | 0.59
O=c1[nH]cc(-c2cc(N3C[C@H](Oc4ncc(C(F)(F)F)cn4)C(F)(F)C3)c3nccn3n2)c(=O)[nH]1 [Example G351, reference compound] |  | 8.8 | 8.2 | 3.53
